In patent publication US12247029B2, “Heterocyclic compounds as class II phosphoinositide 3-kinase inhibitors” (Forschungsverbund Berlin e.V., priority 2018, dated 2025):

These molecules were tested against PI3KC2α Δ1-298 (Homo sapiens (Human), UniProt O00443) (assay: ADP-Glo kinase assay with purified PI3KC2α Δ1-298). Conditions: not given.
Type: biochemical
Protocol: Previous studies have shown that PI3KC2α can utilize phosphatidylinositol (PI) or phosphatidylinositol 4-phosphate [PI(4)P] to produce PI(3)P or PI(3,4)P2 respectively but with a preference for PI(3,4)P2 production. To verify that purified PI3KC2α Δ1-298 is active, a radioactive kinase assay was performed with PI as a substrate and different amounts of purified PI3KC2α Δ1-298. The lipid product [PI(3)P] was separated on TLC plates, and the PI(3)P signal was correlated with the amount of PI3KC2α used (FIG. 4A). […] After having confirmed the activity of purified PI3KC2α Δ1-298, an assay suitable for high content screens in multiwell format (ADP-Glo™ assay) was established. The ADP-Glo™ assay has been used for universal detection of ATP hydrolysis. This assay measures ATP hydrolysis occurring during a kinase reaction. For detection, generated ADP is re-converted into ATP with the […] and converted into light by the Ultra-Glo™ Luciferase reagent. The luminescent signal reports kinase activity (FIG. 4B).
The ADP-Glo™ assay was first used to determine the linear correlation range of signal with different amounts of kinase, and then to assess the Kms for ATP and for PI. […] Further optimization of this assay allowed us to carry out medium-to-high throughput screening using low amounts of purified enzyme (at fixed concentrations of: ATP=40 μM, PI=200 μM, PI3KC2α A1−298=10 ng/μl).
Primary screens were performed using the ADP-Glo™ assay in a 384-well format. 37, 224 small molecules were screened for their ability to inhibit kinase activity of PI3KC2α Δ1-298. The concentration of each compound used in the primary screens was 10 μM. Kinase incubations with ATP but without PI were used as negative control samples. This primary screen turned out to be robust with an average z′ factor of 0.57, and therefore judged as successful.
ADP-Glo kinase assay was performed as described by the manufacturer's protocol. Briefly, the kinase assay was performed with a […] of liver PI/ATP/purified PI3KC2α for 20 min in kinase reaction buffer described above. To deplete the remaining ATP from the reaction, 5 μl of […] was added to the kinase reaction mixture and incubated for 40 min. For detection, the generated ADP is re-converted into ATP and converted into light by the Ultra-Glo™ luciferase in kinase detection reagent. The luminescent signal positively correlates with kinase activity. All reactions are performed in Corning® 384 well-white plates.

Sequence of PI3KC2α Δ1-298 (O00443 299-1686): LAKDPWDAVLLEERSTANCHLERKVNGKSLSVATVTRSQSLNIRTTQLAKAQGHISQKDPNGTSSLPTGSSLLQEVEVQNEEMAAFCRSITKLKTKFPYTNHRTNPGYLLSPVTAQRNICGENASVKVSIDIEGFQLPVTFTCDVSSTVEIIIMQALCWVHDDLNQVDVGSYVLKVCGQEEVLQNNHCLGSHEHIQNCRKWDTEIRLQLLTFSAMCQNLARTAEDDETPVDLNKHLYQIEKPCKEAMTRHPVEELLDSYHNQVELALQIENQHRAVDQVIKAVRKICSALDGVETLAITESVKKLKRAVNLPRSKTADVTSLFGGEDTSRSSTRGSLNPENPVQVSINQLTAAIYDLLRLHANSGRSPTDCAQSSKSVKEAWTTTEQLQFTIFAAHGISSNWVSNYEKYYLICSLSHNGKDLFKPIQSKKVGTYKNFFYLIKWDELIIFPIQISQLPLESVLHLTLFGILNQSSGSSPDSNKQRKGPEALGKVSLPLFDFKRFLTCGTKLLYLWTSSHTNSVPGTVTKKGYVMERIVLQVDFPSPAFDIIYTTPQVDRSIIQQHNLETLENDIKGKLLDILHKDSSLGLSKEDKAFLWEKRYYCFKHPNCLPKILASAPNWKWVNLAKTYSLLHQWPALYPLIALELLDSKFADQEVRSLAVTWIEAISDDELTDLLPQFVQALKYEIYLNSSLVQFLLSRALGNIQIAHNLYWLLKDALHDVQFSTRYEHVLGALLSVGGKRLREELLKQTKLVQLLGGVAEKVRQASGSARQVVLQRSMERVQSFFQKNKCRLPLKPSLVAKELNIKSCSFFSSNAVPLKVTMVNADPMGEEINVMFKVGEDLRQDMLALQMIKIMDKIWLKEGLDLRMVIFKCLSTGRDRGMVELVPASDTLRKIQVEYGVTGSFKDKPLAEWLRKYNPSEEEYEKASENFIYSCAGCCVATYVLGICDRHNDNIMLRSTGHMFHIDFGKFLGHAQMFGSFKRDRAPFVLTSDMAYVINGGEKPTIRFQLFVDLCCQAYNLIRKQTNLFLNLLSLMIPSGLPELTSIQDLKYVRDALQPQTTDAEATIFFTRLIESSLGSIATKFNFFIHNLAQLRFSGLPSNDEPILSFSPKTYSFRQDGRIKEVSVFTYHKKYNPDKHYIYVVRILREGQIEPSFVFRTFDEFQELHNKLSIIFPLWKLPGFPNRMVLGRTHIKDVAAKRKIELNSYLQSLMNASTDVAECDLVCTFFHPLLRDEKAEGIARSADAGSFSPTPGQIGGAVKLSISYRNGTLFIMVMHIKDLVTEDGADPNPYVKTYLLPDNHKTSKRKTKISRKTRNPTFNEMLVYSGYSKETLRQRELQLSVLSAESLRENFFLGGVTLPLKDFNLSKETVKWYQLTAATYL

SMILES	inhibition at 10 µM [%]
O=C(CCc1nc2nccnc2c(=O)n1CCc1ccccc1)Nc1ccccc1 [Example Compound 100, 3-(4-Oxo-3-phenethyl-3,4-dihydropteridin-2-yl)-N-phenylpropanamide]	31
O=C(CCc1nc2nccnc2c(=O)n1CCc1ccccc1)NCc1ccccc1 [Example Compound 101, N-Benzyl-3-(4-oxo-3-phenethyl-3,4-dihydropteridin-2-yl)propanamide]	28
O=C(CCc1nc2nccnc2c(=O)n1CCc1ccccc1)NCCc1ccccc1 [Example Compound 102, 3-(4-Oxo-3-phenethyl-3,4-dihydropteridin-2-yl)-N-phenethylpropanamide]	36

Same assay, conditions: read-out: IC50 (PI3KC2α; ADP-Glo™ assay)

SMILES	IC50 [nM]
O=c1c2nccnc2nc(SCc2nc3cc(Br)cnc3[nH]2)n1CCc1ccccc1 [Example Compound 74, 2-(((6-Bromo-3H-imidazo[4,5-b]pyridin-2-yl)methyl)thio)-3-phenethylpteridin-4(3H)-one]	910
COC(=O)c1ccc2[nH]c(CSc3nc4nccnc4c(=O)n3CCc3ccccc3)nc2c1 [Example Compound 75, Methyl 2-(((4-oxo-3-phenethyl-3,4-dihydropteridin-2-yl)thio)methyl)-1H-benzo[d]imidazole-5-carboxylate]	2600
O=c1c2nccnc2nc(SCc2ncc[nH]2)n1CCc1ccccc1 [Example Compound 76, 2-(((1H-Imidazol-2-yl)methyl)thio)-3-phenethylpteridin-4(3H)-one]	22000
Cc1nc(CSc2nc3nccnc3c(=O)n2CCc2ccccc2)[nH]c1C [Example Compound 77, 2-(((4,5-Dimethyl-1H-imidazol-2-yl)methyl)thio)-3-phenethylpteridin-4(3H)-one]	23000
CS(=O)(=O)c1ccc(-n2c(SCC(=O)Nc3nccs3)nc3nccnc3c2=O)cc1 [Example Compound 78, 2-((3-(4-(Methylsulfonyl)phenyl)-4-oxo-3,4-dihydropteridin-2-yl)thio)-N-(thiazol-2-yl)acetamide]	9500
CS(=O)(=O)c1ccc(-n2c(SCc3nc4ccccc4[nH]3)nc3nccnc3c2=O)cc1 [Example Compound 79, 2-(((1H-Benzo[d]imidazol-2-yl)methyl)thio)-3-(4-(methylsulfonyl)phenyl)pteridin-4(3H)-one]	920
Cc1nnc(NS(=O)(=O)c2ccc(-n3c(SCC(=O)Nc4nccs4)nc4nccnc4c3=O)cc2)s1 [Example Compound 80, 2-((3-(4-(N-(5-Methyl-1,3,4-thiadiazol-2-yl)sulfamoyl)phenyl)-4-oxo-3,4-dihydropteridin-2-yl)thio)-N-(thiazol-2-yl)acetamide]	280
CNC(=O)c1ccc(-n2c(SCC(=O)Nc3nccs3)nc3nccnc3c2=O)cc1 [Example Compound 81, 4 N-Methyl-4-(4-oxo-2-((2-oxo-2-(thiazol-2-ylamino)ethyl)thio)pteridin-3(4H)-yl)benzamide]	620
CNC(=O)c1ccc(-n2c(SCc3nc4ccccc4[nH]3)nc3nccnc3c2=O)cc1 [Example Compound 82, 4-(2-(((1H-Benzo[d]imidazol-2-yl)methyl)thio)-4-oxopteridin-3(4H)-yl)-N-methylbenzamide]	610
N#Cc1ccc(-n2c(SCC(=O)Nc3nccs3)nc3nccnc3c2=O)cc1 [Example Compound 85, 2-((3-(4-Cyanophenyl)-4-oxo-3,4-dihydropteridin-2-yl)-thio)-N-(thiazol-2-yl)acetamide]	1200
N#Cc1ccc(-n2c(SCc3nc4ccccc4[nH]3)nc3nccnc3c2=O)cc1 [Example Compound 86, 4-(2-(((1H-Benzo[d]imidazol-2-yl)methyl)thio)-4-oxopteridin-3(4H)-yl)benzonitrile]	1100
O=C(CSc1nc2nccnc2c(=O)n1C1Cc2ccccc2C1)Nc1nccs1 [Example Compound 87, 2-((3-(2,3-Dihydro-1H-inden-2-yl)-4-oxo-3,4-dihydropteridin-2-yl)thio)-N-(thiazol-2-yl)acetamide]	170
O=c1c2nccnc2nc(SCc2nc3ccccc3[nH]2)n1C1Cc2ccccc2C1 [Example Compound 88, 2-(((1H-Benzo[d]imidazol-2-yl)methyl)thio)-3-(2,3-dihydro-1H-inden-2-yl)pteridin-4(3H)-one]	130
C[C@@H](c1ccccc1)n1c(SCC(=O)Nc2nccs2)nc2nccnc2c1=O [Example Compound 89, (S)-2-((4-Oxo-3-(1-phenylethyl)-3,4-dihydropteridin-2-yl)-thio)-N-(thiazol-2-yl) acetamide]	1700
C[C@@H](c1ccccc1)n1c(SCc2nc3ccccc3[nH]2)nc2nccnc2c1=O [Example Compound 90, (S)-2-(((1H-Benzo[d]imidazol-2-yl)methyl)thio)-3-(1-phenylethyl)pteridin-4(3H)-one]	16000
COC(=O)[C@H]1C[C@H](n2c(SCC(=O)Nc3nccs3)nc3nccnc3c2=O)C1 [Example Compound 91, trans-Methyl 3-(4-oxo-2-((2-oxo-2-(thiazol-2-ylamino)ethyl)thio)pteridin-3(4H)-yl)cyclobutane-1-carboxylate]	370
COC(=O)[C@H]1C[C@H](n2c(SCc3nc4ccccc4[nH]3)nc3nccnc3c2=O)C1 [Example Compound 92, trans-Methyl-3-(2-(((1H-benzo[d]imidazol-2-yl)methyl)thio)-4-oxo-pteridin-3(4H)-yl)cyclobutane-1-carboxylate]	320
CC(C)(C)OC(=O)N1CCC(n2c(SCC(=O)Nc3nccs3)nc3nccnc3c2=O)CC1 [Example Compound 93, tert-Butyl 4-(4-oxo-2-((2-oxo-2-(thiazol-2-ylamino)ethyl)thio)pteridin-3(4H)-yl)piperidine-1-carboxylate]	3600
CC(C)(C)OC(=O)N1CCC(n2c(SCc3nc4ccccc4[nH]3)nc3nccnc3c2=O)CC1 [Example Compound 94, tert-Butyl 4-(2-(((1H-benzo[d]imidazol-2-yl)methyl)thio)4-oxopteridin-3(4H)-yl)piperidine-1-carboxylate]	1200
O=C(CSc1nc2nccnc2c(=O)n1CCc1ccc(O)cc1)Nc1nccs1 [Example Compound 95, 2-((3-(4-Hydroxyphenethyl)-4-oxo-3,4-dihydropteridin-2-yl)thio)-N-(thiazol-2-yl)acetamide]	210
O=c1c2nccnc2nc(SCc2nc3ccccc3[nH]2)n1CCc1ccc(O)cc1 [Example Compound 96, 2-(((1H-Benzo[d]imidazol-2-yl)methyl)thio)-3-(4-hydroxyphenethyl)pteridin-4(3H)-one]	100
